Earlier results, collected in patent US6586615B1, “α-aminoboronic acids prepared by novel synthetic methods” (Bristol-Myers Squibb Company, priority 2001, dated 2003).

Target: chymotrypsin (Bos taurus, UniProt P00766)
Conditions: inhibits chymotrypsin; background, Matteson J. Am. Chem. Soc. 103, 5241-5242 (1981)

CC(=O)NC(Cc1ccccc1)B(O)O (stereo not shown) [Ac-boroPhe-OH]
Ki: 2100 nM
